These results are taken from US4277498A, “Amides” (Burroughs Wellcome Co., priority 1976, dated 1981).

As usually defined, the ED50 is the dose that gives a 50% effect, or the effect in half of the subjects. As usually defined, the LD50 is the dose expected to kill half of the subjects tested.

Data set [1] is described as follows: Anti-tetrabenazine test (ptosis and sedation), Example 37. The following applies: Mus musculus, po. Format: in vivo, Female albino mice. As to the method: Female albino mice were grouped, six per cage. Compounds of formula (I) as the respective salt in saline solution were administered orally, thirty minutes prior to the administration of tetrabenazine, 50 mg/kg, i.p. The animals were scored according to the method of V. G. Vernier, H. M. Hanson and C. A. Stone: Psychosomatic medicine, ch.

A short description of data set [2]: tetrabenazine-induced sedation test in the rat (general statements on antidepressant activity). The following applies: acceptable salts. Format: in vivo.
The nature of another data set: in vivo. The following applies: mouse, po, mice, p.o. as salt in saline, deaths within two days. The procedure: Several groups of mice were treated with specific doses of compounds of formula (I) as orally administered salts in saline solution. After treatment of each group with a different dose of a specific compound the number of mice dead in each group within two days was noted. […] The LD50 value is the lethal dose required to kill half of the treated animals.
The procedure was repeated with other groups of mice for other compounds of formula (I).

The mark [3] stands for this setting: ptosis, mice, p.o. as salt in saline, 30 min before tetrabenazine 50 mg/kg i.p., read-out: Anti-depressant activity, approx. ED50 values, p.o., Ptosis.
[4] abbreviates: sedation, mice, p.o. as salt in saline, 30 min before tetrabenazine 50 mg/kg i.p., read-out: Anti-depressant activity, approx. ED50 values, p.o., Sedation.

Counter-ions that a name gives are not always drawn. Like-named read-outs stand apart in the source and are kept apart here. A value given as a limit tells only on which side of the number the result lay.

On to `CC(CC1CCCCC1)NC(=O)CN` (racemic) [Example 9, hydrogen fumarate, (±)-2-Amino-N-(2-cyclohexyl)-1-methylethyl)acetamide hydrogen fumarate], for which the figures for the ED50 in data set [1] (setting [3]) and in data set [1] (setting [4]) were approximately 6 mg/kg and approximately 7.5 mg/kg, respectively.
`CC(C)CCCC(C)(C)NC(=O)CN` [2-amino-N-(1,1,5-trimethylhexyl)acetamide]: the “antidepressant activity in the tetrabenazine-induced sedation test” value in data set [2] is “have shown antidepressant activity”.
Turning to `CCCCCC(C)NC(=O)CN` (stereo not drawn) [2-amino-N-(1-methylhexyl)acetamide], the “antidepressant activity in the tetrabenazine-induced sedation test” value in data set [2] is given as “have shown antidepressant activity”.
On the same count and under the same terms, the same measure for `CC(C)(CC1CCCC1)NC(=O)CN` [2-amino-N-(2-cyclopentyl-1,1-dimethylethyl)acetamide]: “have shown antidepressant activity”.
Take `CCCCCC(C)(C)NC(=O)CN` [Example 2, hydrogen oxalate, 2-amino-N-(1,1-dimethylhexyl)acetamide]: the median effective dose (ED50) was approximately 3.5 mg/kg in data set [1] (setting [3]) and approximately 2.3 mg/kg in data set [1] (setting [4]).
With `CC1(NC(=O)CN)CCCCC1` [Example 3, hydrogen oxalate, 2-Amino-N-(1-methylcyclohexyl)acetamide], the 50% effective dose (ED50) is approximately 6.92 mg/kg in data set [1] (setting [3]) and approximately 5.69 mg/kg in data set [1] (setting [4]). Besides, in “in vivo”, the 50% lethal dose (LD50) at 48 h is more than 2000 mg/kg.
As to `CC1(NC(=O)CN)CCCCCC1` [Example 4, hydrogen oxalate, 2-Amino-N-(1-methylcycloheptyl)acetamide], the 50% effective dose (ED50) in data set [1] (setting [3]) is approximately 5 mg/kg; in data set [1] (setting [4]) it was approximately 10.6 mg/kg. The 50% lethal dose (LD50) at 48 h in the data set “in vivo” came out at 1110 mg/kg.
As to `CCCCC(C)(C)NC(=O)CN.O=C(O)C(=O)O` [Example 5, hydrogen oxalate, 2-amino-N-(1,1-dimethylpentyl)acetamide hydrogen oxalate], the ED50 in data set [1] (setting [3]) was approximately 20 mg/kg; in data set [1] (setting [4]), approximately 10 mg/kg. The LD50 at 48 h in the data set “in vivo” is 536 mg/kg.
On to `CCCC(C)CC(C)(C)NC(=O)CN` (stereo not drawn) [Example 6, hydrogen fumarate, 2-amino-N-(1,1,3-trimethylhexyl)acetamide], for which the ED50 was approximately 18.7 mg/kg in data set [1] (setting [3]) and approximately 9.5 mg/kg in data set [1] (setting [4]).
Take `CCCCCCC(C)(C)NC(=O)CN` [Example 7, hydrogen fumarate, 2-Amino-N-(1,1-dimethylheptyl)acetamide]: the 50% lethal dose (LD50) at 48 h in “in vivo” is 1000 mg/kg.
In the case of `CCCCCC(C)NC(=O)CN.O=C(O)CCC(=O)O` (stereo not drawn) [Example 8, hydrogen succinate, 2-Amino-N-(1-methylhexyl)acetamide hydrogen succinate], the ED50 in data set [1] (setting [3]) was approximately 3.8 mg/kg; in data set [1] (setting [4]), approximately 2.7 mg/kg. The LD50 at 48 h in “in vivo” is 500 mg/kg.
As to `CC(C)(CC1CCCC1)NC(=O)CN.CCO.O=C(O)/C=C/C(=O)O` [Example 11, hydrogen fumarate, 2-Amino-N-(1,1-dimethyl-2-cyclopentylethyl)acetamide hydrogen fumarate monoethanolate], the ED50 is approximately 5 mg/kg in data set [1] (read-out: Anti-depressant activity, approx. ED50 values, p.o., Ptosis) and approximately 5 mg/kg in data set [1] (read-out: Anti-depressant activity, approx. ED50 values, p.o., Sedation). Also, in “in vivo”, the LD50 at 48 h was found to be 575 mg/kg.
Regarding `CC(C)CCCC(C)(C)NC(=O)CN` [Example 12, hydrogen succinate, 2-amino-N-(1,1,5-trimethylhexyl)acetamide], the 50% effective dose (ED50) in data set [1] (setting [3]) is approximately 8 mg/kg; in data set [1] (setting [4]) it was approximately 2.5 mg/kg.
